Laboratory results taken from ChEMBL document CHEMBL1201862, “PubChem BioAssay data set” (2004).
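Compound exposure: 48 hours, 5 concentrations, 96-well plates. GI50 is the concentration that inhibits growth by half.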 Calls of active or inactive are those of the source. Cut-off read from the data, not from the text of the source: active = GI50 up to about 1.1 µM and inactive = higher.

How the values were obtained:
Assay in all cases: NCI anticancer screen, dose series, 48 h
HCT-116 = tested on: HCT-116
SF-295 = tested on: SF-295
SN12C = tested on: SN12C
OVCAR-4 = tested on: OVCAR-4
U-251 = tested on: U-251
HOP-92 = tested on: HOP-92
SK-MEL-2 = tested on: SK-MEL-2
NCI-H226 = tested on: NCI-H226
EKVX = tested on: EKVX
M14 = tested on: M14
PC-3 = tested on: PC-3
MOLT-4 = tested on: MOLT-4
IGROV-1 = tested on: IGROV-1
OVCAR-5 = tested on: OVCAR-5
HOP-62 = tested on: HOP-62
ACHN = tested on: ACHN
NCI/ADR-RES = tested on: NCI/ADR-RES
SF-539 = tested on: SF-539
Malme-3M = tested on: Malme-3M
UO-31 = tested on: UO-31
NCI-H522 = tested on: NCI-H522
OVCAR-3 = tested on: OVCAR-3
MDA-MB-231 = tested on: MDA-MB-231
COLO 205 = tested on: COLO 205
SW-620 = tested on: SW-620
LOX IMVI = tested on: LOX IMVI
DU-145 = tested on: DU-145
786-0 = tested on: 786-0
RXF 393 = tested on: RXF 393
CAKI-1 = tested on: CAKI-1
MDA-N = tested on: MDA-N
K562 = tested on: K562
A498 = tested on: A498
HCT-15 = tested on: HCT-15
SNB-75 = tested on: SNB-75
TK-10 = tested on: TK-10
A549 = tested on: A549
BT-549 = tested on: BT-549
NCI-H460 = tested on: NCI-H460
HL-60 = tested on: HL-60
MDA-MB-435 = tested on: MDA-MB-435
UACC-257 = tested on: UACC-257
HCC 2998 = tested on: HCC 2998
SK-OV-3 = tested on: SK-OV-3
MCF7 = tested on: MCF7
SNB-19 = tested on: SNB-19
T47D = tested on: T47D
SR = tested on: SR
SK-MEL-28 = tested on: SK-MEL-28
RPMI-8226 = tested on: RPMI-8226
OVCAR-8 = tested on: OVCAR-8
SK-MEL-5 = tested on: SK-MEL-5
HT-29 = tested on: HT-29
Hs-578T = tested on: Hs-578T
NCI-H23 = tested on: NCI-H23
SF-268 = tested on: SF-268
CCRF-CEM = tested on: CCRF-CEM
UACC-62 = tested on: UACC-62
KM12 = tested on: KM12

Measured: GI50

COC(=O)/C(C#N)=C(/NCc1ccccc1)Nc1ccccc1
83.2 µM: HCT-15
inactive: HCT-116 63 µM | SF-295 46.1 µM | SN12C > 100 µM | OVCAR-4 91 µM | U-251 > 100 µM | HOP-92 81.7 µM | SK-MEL-2 > 100 µM | NCI-H226 > 100 µM | EKVX 50.9 µM | M14 42.4 µM | PC-3 46 µM | MOLT-4 30.1 µM | IGROV-1 > 100 µM | OVCAR-5 > 100 µM | HOP-62 > 100 µM | ACHN > 100 µM | NCI/ADR-RES 51.1 µM | SF-539 > 100 µM | Malme-3M > 100 µM | UO-31 37.6 µM | NCI-H522 55.7 µM | OVCAR-3 72.3 µM | MDA-MB-231 69.7 µM | COLO 205 73.1 µM | SW-620 > 100 µM | LOX IMVI 61.2 µM | DU-145 > 100 µM | 786-0 92.5 µM | RXF 393 > 100 µM | CAKI-1 > 100 µM | MDA-N 46.9 µM | K562 46.1 µM | A498 > 100 µM | SNB-75 37.3 µM | TK-10 > 100 µM | A549 45.1 µM | BT-549 > 100 µM | NCI-H460 77.4 µM | HL-60 27.8 µM | MDA-MB-435 > 100 µM | UACC-257 82.8 µM | HCC 2998 > 100 µM | SK-OV-3 > 100 µM | MCF7 > 100 µM | SNB-19 > 100 µM | T47D 79.3 µM | SR 53.8 µM | SK-MEL-28 > 100 µM | RPMI-8226 48.9 µM | OVCAR-8 > 100 µM | SK-MEL-5 64 µM | HT-29 87.7 µM | Hs-578T 68.5 µM | NCI-H23 > 100 µM | SF-268 > 100 µM

COC(=O)/C=C(\C(=O)OC)c1cc(C)c2cc(C(C)C)ccc(C)c1-2
11.7 µM: HCT-15
inactive: CCRF-CEM 71.4 µM | HCT-116 34 µM | SF-295 41.7 µM | SN12C 53.3 µM | OVCAR-4 88.3 µM | U-251 51.1 µM | HOP-92 24.5 µM | SK-MEL-2 34.8 µM | NCI-H226 53.3 µM | EKVX 71 µM | M14 23.5 µM | UACC-62 32.2 µM | PC-3 29 µM | MOLT-4 > 100 µM | IGROV-1 85.9 µM | OVCAR-5 > 100 µM | HOP-62 34.8 µM | ACHN 25.6 µM | NCI/ADR-RES 32 µM | SF-539 30.5 µM | Malme-3M 38.5 µM | UO-31 20.5 µM | NCI-H522 13.1 µM | OVCAR-3 49.4 µM | MDA-MB-231 24.7 µM | COLO 205 30.3 µM | SW-620 34 µM | LOX IMVI 45.2 µM | DU-145 60.3 µM | 786-0 75.5 µM | RXF 393 41.4 µM | CAKI-1 47.9 µM | MDA-N 19.5 µM | K562 > 100 µM | A498 > 100 µM | TK-10 83.9 µM | A549 28.2 µM | BT-549 39.6 µM | NCI-H460 40.7 µM | HL-60 34.7 µM | MDA-MB-435 30 µM | KM12 37.4 µM | HCC 2998 28 µM | SK-OV-3 85.9 µM | MCF7 24.9 µM | SNB-19 > 100 µM | T47D 15.4 µM | SR > 100 µM | SK-MEL-28 > 100 µM | RPMI-8226 > 100 µM | OVCAR-8 55.1 µM | SK-MEL-5 25.6 µM | HT-29 13.3 µM | Hs-578T 42.7 µM | NCI-H23 31.8 µM | SF-268 > 100 µM

O=C1c2cccnc2C(=O)C2C3C=CC(C3)C12 (stereo unspecified)
inactive: CCRF-CEM 1.18 µM | HCT-116 3.85 µM | SF-295 12.6 µM | SN12C 12.8 µM | OVCAR-4 5.01 µM | U-251 4.23 µM | HOP-92 12.9 µM | SK-MEL-2 5.08 µM | NCI-H226 13 µM | EKVX 13.4 µM | M14 13.3 µM | UACC-62 3.37 µM | PC-3 10.2 µM | IGROV-1 10.6 µM | OVCAR-5 18.3 µM | HOP-62 6.68 µM | ACHN 7.53 µM | NCI/ADR-RES 4.52 µM | SF-539 2.4 µM | Malme-3M 15.1 µM | UO-31 11.8 µM | NCI-H522 3.27 µM | OVCAR-3 13.5 µM | MDA-MB-231 2.78 µM | COLO 205 13.3 µM | SW-620 4.41 µM | LOX IMVI 3.66 µM | DU-145 6.92 µM | 786-0 11.1 µM | RXF 393 2.69 µM | CAKI-1 14.4 µM | MDA-N 3.61 µM | K562 2.94 µM | A498 21.2 µM | SNB-75 12.6 µM | TK-10 18 µM | A549 12.4 µM | BT-549 11.5 µM | NCI-H460 3.49 µM | HL-60 1.74 µM | MDA-MB-435 2.25 µM | KM12 14.5 µM | UACC-257 13.5 µM | HCC 2998 15.8 µM | SK-OV-3 18.3 µM | MCF7 3.52 µM | SNB-19 15 µM | T47D 3.01 µM | SR 2.11 µM | SK-MEL-28 15.2 µM | RPMI-8226 2.49 µM | OVCAR-8 5.48 µM | SK-MEL-5 10.8 µM | HT-29 27.2 µM | Hs-578T 9.66 µM | NCI-H23 12.1 µM | SF-268 10.2 µM
12 µM: HCT-15
